According to patent US12378278B2, “Mimetics of heparin oligosaccharides” (Board of Trustees of Michigan State University, priority 2019, dated 2025):

Experiments:
[1] = target: FGF-2-heparin interaction (Homo sapiens, UniProt P09038); assay: Competition SPR on the FGF-2-heparin interaction; assay type: binding; details: FGF-2 50 nM pre-mixed with compound, biotinylated heparin on SA sensor chip
Description: In order to gain more insights into the structure-activity relationship between heparin and FGF-2, the competition assay was performed by the Linhardt group (FIG. 4). Biotinylated heparin was immobilized on the biosensor, and 27 pseudo-hexasaccharides (10 uM) was mixed with FGF-2 (50 nM) individually. […] For IC50 measurements, biotinylated heparin was immobilized on the SA sensor chip as described above, and FGF-2 (50 nM) was pre-mixed with different concentrations of pseudo-hexasaccharides. […] According to competition SPR results, successive fully sulfated disaccharide modules are required for potent competitive activity.

FGF-2 = FGF-2 (Homo sapiens, UniProt P09038); assay: Direct binding to immobilized FGF-2 by surface plasmon resonance (SPR); details: FGF-2 immobilized on CDH sensor chip
Sequence of FGF-2 (P09038 143-288, species assumed): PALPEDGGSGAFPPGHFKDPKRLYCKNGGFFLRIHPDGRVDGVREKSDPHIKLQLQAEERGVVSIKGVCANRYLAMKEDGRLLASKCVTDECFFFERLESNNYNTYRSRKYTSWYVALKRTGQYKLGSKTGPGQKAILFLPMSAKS
Text: FGF-2 was immobilized on CDH sensor chip surface through EDC/NHS coupling, and fully sulfated (50), O-sulfated (50z) and N-sulfated (50m) pseudo-hexasaccharides were selected as analytes. […] The SPR results correlated well with that of heparin hexasaccharides (36, 51, 52) (Chem. Eur. J. 2006, 12 (34), 8664-8686).
FGF-2 was immobilized on sensor chip by primary amine coupling reaction. The surface of a CDH sensor chip (ForteBio, Inc., Molecular Devices, USA) was activated using freshly mixed N-hydroxysuccimide (NHS; 0.05 M) and 1-(3-(dimethylamino)propyl)-ethylcarbodiimide (EDC; 0.2 M) (1/1, v/v) in water, followed by the injection of FGF-2 (50 ug/ml) in PBS buffer. The remaining active esters were quenched by ethanolamine (1.0 M). All measurements were performed using 0.01% Tween 20 PBS buffer. Aqueous NaCl (2.0 M) was employed for regeneration to achieve baseline status.

Sequence of FGF-2-heparin interaction (P09038 143-288, species assumed): as above

IC50 [1] [µM]	Molecule	also measured
3.5	CC(=O)NCCOC1OC(C(=O)O)C(OC2OC(COS(=O)(=O)O)C(OCCC(=O)NCCOC3OC(C(=O)O)C(OC4OC(COS(=O)(=O)O)C(OCCC(=O)NCCOC5OC(C(=O)O)C(OC6OC(COS(=O)(=O)O)C(OCCC(=O)O)C(O)C6NC(C)=O)C(O)C5OS(=O)(=O)O)C(O)C4NS(=O)(=O)O)C(O)C3OS(=O)(=O)O)C(O)C2NS(=O)(=O)O)C(O)C1OS(=O)(=O)O (centres unmarked) [Compound 50r]	
4	CC(=O)NCCOC1OC(C(=O)O)C(OC2OC(COS(=O)(=O)O)C(OCCC(=O)NCCOC3OC(C(=O)O)C(OC4OC(COS(=O)(=O)O)C(OCCC(=O)NCCOC5OC(C(=O)O)C(OC6OC(COS(=O)(=O)O)C(OCCC(=O)O)C(O)C6NS(=O)(=O)O)C(O)C5OS(=O)(=O)O)C(O)C4NS(=O)(=O)O)C(O)C3OS(=O)(=O)O)C(O)C2NC(C)=O)C(O)C1OS(=O)(=O)O (centres unmarked) [Compound 50b]	
10.8	CC(=O)NCCOC1OC(C(=O)O)C(OC2OC(CO)C(OCCC(=O)NCCOC3OC(C(=O)O)C(OC4OC(COS(=O)(=O)O)C(OCCC(=O)NCCOC5OC(C(=O)O)C(OC6OC(COS(=O)(=O)O)C(OCCC(=O)O)C(O)C6NS(=O)(=O)O)C(O)C5OS(=O)(=O)O)C(O)C4NS(=O)(=O)O)C(O)C3OS(=O)(=O)O)C(O)C2NS(=O)(=O)O)C(O)C1O (centres unmarked) [Compound 50a]	
	N-Acetamidoethyl O-(4-O-carboxyethyl-2-deoxy-2-sulfoamino-1-thio-α-D-glucopyranoside)-(1→4)-O-(6-O-carboxyl-1-thio-α-L-idopyranosiduronate)-(1→4)-O-(2-deoxy-2-sulfoamino-1-thio-α-D-glucopyranoside)-(1→4)-O-(6-O-carboxyl-1-thio-α-L-idopyranosiduronate)-(1→4)-O-(2-deoxy-2-sulfoamino-1-thio-α-D-glucopyranoside)-(1→4)-O-(6-O-carboxyl-1-thio-α-L-idopyranosiduronate) [Compound 50m]	binding to FGF-2 (in words) (FGF-2): weak signal
	CC(=O)NCCOC1OC(C(=O)O)C(OC2OC(COS(=O)(=O)O)C(OCCC(=O)NCCOC3OC(C(=O)O)C(OC4OC(COS(=O)(=O)O)C(OCCC(=O)NCCOC5OC(C(=O)O)C(OC6OC(COS(=O)(=O)O)C(OCCC(=O)O)C(O)C6NC(C)=O)C(O)C5OS(=O)(=O)O)C(O)C4NC(C)=O)C(O)C3OS(=O)(=O)O)C(O)C2NC(C)=O)C(O)C1OS(=O)(=O)O (centres unmarked) [Compound 50z]	Kd (FGF-2; compound as analyte): 0.94 µM
